The nature of test [1]: Obesity Food Intake Model - Fasted-Induced Feeding Assay. To be noted: fasted male CD rats; for effect on food intake (fasting-induced refeeding): 10 mg/kg, given 30 minutes prior to return of food, vs vehicle-treated control; for fasting-induced refeeding, dose dependence: Compound IIA 0.1, 1, 10 mg/kg, Compound IIIA 1, 3, 10, 32 mg/kg, comparator rimonabant 3 mg/kg. The class given is in vivo, rat. Here is the method: PDE10 inhibitors were also tested for efficacy in reducing the acute re-feeding response following food withdrawal. Male CD rats were fasted overnight. Rats were administered a PDE10 inhibitor (Compound IIA and IIIA in separate tests) 30 minutes prior to the return of food. Food consumption was monitored and weighed at predetermined time points and the effect of PDE10 inhibitors were compared to vehicle-treated control rats.
Compound IIA, Compound IIIA and rimonabant were tested in the fasted-induced feeding assay described above. Compound IIA was tested at 10 mg/kg, 1 mg/kg and 0.1 mg/kg; Compound IIIA was tested at 32 mg/kg, 10 mg/kg, 3 mg/kg and 1 mg/kg; and rimonabant was tested at 3 mg/kg. Both Compound IIA and Compound IIIA were efficacious at 10 mg/kg.

The nature of test [2]: Oxygen consumption in diet-induced obese (DIO) mice. It is filed as in vivo, mouse. To be noted: 15 mg/kg twice daily po, at the end of the study, vs vehicle. Here is the method: Following determination of body composition, energy expenditure and oxygen consumption were determined using an Oxymax system (Columbus Instruments, Columbus, Ohio). Mice were housed under standard laboratory conditions and maintained on the experimental diet. Mice were acclimated to sealed chambers (8″×4″×5.5″) of the calorimeter (one mouse per chamber). The chambers were placed in activity monitors. The calorimeter was calibrated before each use, airflow was adjusted to 1.6 liters/min, and the system setting and sampling times were set to 60 seconds and 15 seconds, respectively. Oxygen consumption, carbon dioxide production, and ambulatory activity were measured every 10 minutes for a period of 4 hours. For testing the effects of a PDE10 inhibitor on body weight and oxygen consumption, a mouse model of diet-induced obesity (DIO) was used. Obesity was induced in the mice by maintaining them on a 45% fat diet for more than 14 weeks. DIO mice were treated with Compound IVA at a dose of 15 mg/kg, administered twice daily (p.o.) for 14 days. Control mice were administered a vehicle of 0.5% methylcellulose. Measurements were made as previously described. DIO mice were treated with Compound IVA at a dose of 15 mg/kg administered twice daily (po). […] Oxygen consumption was determined in the Compound IV and vehicle treated mice at the end of the study.

Test [3] is described as follows: Body weight and food intake in diet-induced obese (DIO) mice. The class given is in vivo, mouse. To be noted: 15 mg/kg twice daily po. Here is the method:
Mice were individually housed and divided into two groups: a group of control mice which remained on Purina 5001 chow; and another group which was switched to a diet composed of 45 kcal % fat (D12331 Rodent Diet, Research Diets, Inc., New Brunswick, N.J.) for the duration of the 6 week study. Food intake was measured on a 24-hour, 5 days/week cycle (Monday-Friday). Body weight was determined on Day 0 and thereafter at the same time that food intake was measured. For testing the effects of a PDE10 inhibitor on body weight and oxygen consumption, a mouse model of diet-induced obesity (DIO) was used. Obesity was induced in the mice by maintaining them on a 45% fat diet for more than 14 weeks. DIO mice were treated with Compound IVA at a dose of 15 mg/kg, administered twice daily (p.o.) for 14 days. Control mice were administered a vehicle of 0.5% methylcellulose. Measurements were made as previously described. DIO mice were treated with Compound IVA at a dose of 15 mg/kg administered twice daily (po). Control mice were administered the vehicle, 0.5% methylcellulose. […] Oxygen consumption was determined in the Compound IV and vehicle treated mice at the end of the study.

For `COc1cc2ncnc(N3CC[C@@H](Oc4cnc5ccccc5n4)C3)c2cc1OC` (stereo in doubt) [Compound IIA, 6,7-Dimethoxy-4-[3-(quinoxalin-2-yloxy)-pyrrolidin-1-yl]-quinazoline], in test [1], the “effect on food intake (fasting-induced refeeding)” value was “efficacious” and the “fasting-induced refeeding, dose dependence” value is listed as “reduce fasting-induced refeeding in the rats in a dose dependent fashion”.
`COc1cc2nc(N3CCNCC3)nc(-c3ccccc3F)c2cc1OC` [Compound IIIA, 4-(2-Fluorophenyl)-6,7-dimethoxy-2-piperazin-1-yl-quinazoline]: in test [1], the “effect on food intake (fasting-induced refeeding)” value is “efficacious” and the “fasting-induced refeeding, dose dependence” value was “reduce fasting-induced refeeding in the rats in a dose dependent fashion”.
Turning to `c1ccc2nc(COc3ccc(-c4[nH]ncc4-c4ccncc4)cc3)ccc2c1` [Compound IVA, 2-[4-(4-Pyridin-4-yl-2H-pyrazol-3-yl)-phenoxymethyl]-quinoline], the oxygen consumption result in test [2] is “slight non-significant increase in oxygen consumption”. Moreover, the body weight change entry in test [3] (14 days, vs vehicle 0.5% methylcellulose) is listed as “led to weight loss”. Further, the “onset of weight loss” value in test [3] (apparent on the 4th day) was “after three days treatment”. Also, the food intake entry in test [3] (vs vehicle 0.5% methylcellulose) is “small reduction in food intake”.
